According to ChEMBL document CHEMBL5518209, “Caltrop-like Small-Molecule Antidotes That Neutralize Unfractionated Heparin and Low-Molecular-Weight Heparin In Vivo” (J Med Chem, 2024):
Activity calls are given as the source filed them. No cut-off for these calls is given here.

What was measured:
[1] = Binding affinity to enoxaparin sodium in saline at pH 7.4 assessed as binding constant by ITC analysis
[2] = Binding affinity to nadroparin calcium in saline at pH 7.4 assessed as change in gibbs free energy by ITC analysis
Mus musculus [3] = assay: In vivo antagonism of unfractionated heparin induced anticoagulation in ICR mouse assessed as blood loss at 0.4 mg/kg, iv administered via tail vein pretreated with heparin for 5 mins followed by compound addition and measured after 5 mins (reference value: 324.4 +/- 139.5 microL); format: functional
Homo sapiens [4] = organism: Homo sapiens; assay: Reversal of anticoagulation of unfractionated heparin in human whole blood assessed as restoration of normal coagulation rate at 5 to 20 ug/ml incubated for 5 mins by thromboelastography; format: tissue-based; conditions: dose 5-20 µg/ml
[5] = Toxicity in ICR mouse assessed as histopathological changes in liver at 25 mg/kg, iv administered as single dose through tail vein and measured after 14 days by H and E staining based analysis; format: organism-based; conditions: in vivo, 336 h, time 14 day
Homo sapiens [6] = organism: Homo sapiens; assay: Reversal of anticoagulation of dalteparin sodium in human whole blood assessed as restoration of normal clotting strength at 2 to 20 ug/ml incubated for 5 mins by thromboelastography; format: tissue-based; conditions: dose 2-20 µg/ml
[7] = Acute toxicity in iv dosed ICR mouse assessed as maximum tolerated dose measured after 7 days; format: organism-based; conditions: in vivo, time 7 day
[8] = Binding affinity to enoxaparin sodium in saline at pH 7.4 assessed as change in enthalpy by ITC analysis
[9] = Binding affinity to unfractionated heparin in saline at pH 7.4 assessed as change in enthalpy by ITC analysis
[10] = Cytotoxicity against human MCF7 cells assessed as cell viability at 300 ug/ml incubated for 24 hrs by CCK-8 assay relative to control; format: toxicity, cell-based; conditions: at 300 µg/mL, read-out: Activity
[11] = Toxicity in ICR mouse assessed as histopathological changes in kidneys at 25 mg/kg, iv administered as single dose through tail vein and measured after 14 days by H and E staining based analysis; format: organism-based, Kidney; conditions: in vivo, 336 h, time 14 day
Homo sapiens [12] = organism: Homo sapiens; assay: Reversal of anticoagulation of nadroparin calcium in human whole blood assessed as restoration of normal coagulation rate at 5 to 20 ug/ml incubated for 5 mins by thromboelastography; format: tissue-based; conditions: dose 5-20 µg/ml
[13] = Binding affinity to dalteparin sodium in saline at pH 7.4 assessed as change in gibbs free energy by ITC analysis
Bos taurus [14] = organism: Bos taurus; assay: Neutralization of unfractionated heparin in bovine plasma at 10 to 60 ug/ml by aPTT assay; format: cell-free; conditions: dose 10-60 µg/ml
[15] = Toxicity in ICR mouse assessed as histopathological changes in spleen at 25 mg/kg, iv administered as single dose through tail vein and measured after 14 days by H and E staining based analysis; format: organism-based; conditions: in vivo, 336 h, time 14 day
Homo sapiens [16] = organism: Homo sapiens; assay: Reversal of anticoagulation of […] in human whole blood assessed as restoration of normal clotting strength at 2 to 20 ug/ml incubated for 5 mins by thromboelastography; format: tissue-based; conditions: dose 2-20 µg/ml
Homo sapiens [17] = organism: Homo sapiens; assay: Neutralization of dalteparin sodium in human poor platelet plasma at 10 to 50 ug/ml by aPTT assay relative to control; format: cell-free; conditions: dose 10-50 µg/ml
Homo sapiens [18] = organism: Homo sapiens; assay: Reversal of anticoagulation of unfractionated heparin in human whole blood assessed as minimum effective dose incubated for 5 mins by thromboelastography; format: tissue-based
Homo sapiens [19] = organism: Homo sapiens; assay: Neutralization of unfractionated heparin in human poor platelet plasma at 10 to 50 ug/ml by aPTT assay relative to control; format: cell-free; conditions: dose 10-50 µg/ml
Rattus norvegicus [20] = assay: In vivo antagonism of enoxaparin sodium induced anticoagulation in Sprague-Dawley rat assessed as clotting rate at 0.4 mg/kg, iv administered via tail vein pretreated with enoxaparin sodium for 5 mins followed by compound addition and measured after 2.5 mins by thromboelastography; format: functional
[21] = Toxicity in iv dosed ICR mouse assessed as maximum tolerated dose administered through tail vein; format: organism-based; conditions: in vivo
Bos taurus [22] = organism: Bos taurus; assay: Neutralization of dalteparin sodium in bovine plasma at 10 to 60 ug/ml by aPTT assay; format: cell-free; conditions: dose 10-60 µg/ml
[23] = Toxicity in Sprague-Dawley rat assessed as abnormal index of microalbumin at 25 mg/kg, iv measured after 5 hrs; format: organism-based; conditions: in vivo
[24] = Cytotoxicity against rat H9c2 cells assessed as cell viability at 300 ug/ml incubated for 24 hrs by CCK-8 assay relative to control; format: toxicity, cell-based; conditions: at 300 µg/mL, read-out: Activity
[25] = Binding affinity to nadroparin calcium in saline at pH 7.4 assessed as change in enthalpy by ITC analysis
Mus musculus [26] = assay: In vivo antagonism of dalteparin sodium induced anticoagulation in ICR mouse assessed as blood loss at 0.4 mg/kg, iv administered via tail vein pretreated with heparin for 5 mins followed by compound addition and measured after 5 mins (reference value: 324.4 +/- 139.5 microL); format: functional
Blood [27] = assay: Ex vivo neutralization of unfractionated heparin in Sprague-Dawley rat whole blood assessed as restoration of blood coagulation at 10 to 15 ug/ml incubated for 15 mins; format: functional, tissue-based; conditions: dose 10-15 µg/ml
[28] = Binding affinity to nadroparin calcium in saline at pH 7.4 assessed as binding constant by ITC analysis
[29] = Binding affinity to dalteparin sodium in saline at pH 7.4 assessed as change in enthalpy by ITC analysis
[30] = Binding affinity to enoxaparin sodium in saline at pH 7.4 assessed as increase in fluorescence by measuring inflection point by fluorescence titration method
Rattus norvegicus [31] = assay: (§1) In vivo antagonism of enoxaparin sodium induced anticoagulation in Sprague-Dawley rat assessed as restoration of normal clotting time at 1 mg/kg, iv administered via tail vein pretreated with enoxaparin sodium for 5 mins followed by compound addition and measured after 2.5 mins by thromboelastography; format: functional, organism-based
[32] = Binding affinity to dalteparin sodium in saline at pH 7.4 assessed as binding constant by ITC analysis
Blood [33] = assay: Blood compatibility in human whole blood assessed as effect on clotting strength at 0 to 20 ug/ml measured upto 50 mins by thromboelastography; format: toxicity, tissue-based; conditions: dose 0-20 µg/ml
Bos taurus [34] = organism: Bos taurus; assay: Neutralization of nadroparin calcium in bovine plasma at 10 to 60 ug/ml by aPTT assay; format: cell-free; conditions: dose 10-60 µg/ml
Rattus norvegicus [35] = assay: In vivo antagonism of enoxaparin sodium induced anticoagulation in Sprague-Dawley rat assessed as clotting time at 0.4 mg/kg, iv administered via tail vein pretreated with enoxaparin sodium for 5 mins followed by compound addition and measured after 2.5 mins by thromboelastography; format: functional
Mus musculus [36] = assay: In vivo antagonism of unfractionated heparin induced anticoagulation in ICR mouse assessed as bleeding time at 0.4 mg/kg, iv administered via tail vein pretreated with heparin for 5 mins followed by compound addition and measured after 5 mins (reference value: 96.5 +/- 20.6 min); format: functional
[37] = Binding affinity to unfractionated heparin in saline at pH 7.4 assessed as change in gibbs free energy by ITC analysis
Rattus norvegicus [38] = assay: as §1, with “rate” for “time”; format: functional, organism-based
Homo sapiens [39] = organism: Homo sapiens; assay: Reversal of anticoagulation of dalteparin sodium in human whole blood assessed as restoration of normal clotting time at 5 to 20 ug/ml incubated for 5 mins by thromboelastography; format: tissue-based; conditions: dose 5-20 µg/ml
Homo sapiens [40] = organism: Homo sapiens; assay: Neutralization of nadroparin calcium in human poor platelet plasma at 10 to 50 ug/ml by aPTT assay relative to control; format: cell-free; conditions: dose 10-50 µg/ml

Compound: NCCOc1ccc(-c2cc[n+](Cc3ccc(C(c4ccc(C[n+]5ccc(-c6ccc(OCCN)c(OCCN)c6)cc5)cc4)(c4ccc(C[n+]5ccc(-c6ccc(OCCN)c(OCCN)c6)cc5)cc4)c4ccc(C[n+]5ccc(-c6ccc(OCCN)c(OCCN)c6)cc5)cc4)cc3)cc2)cc1OCCN.[Cl-].[Cl-].[Cl-].[Cl-]
- Ka [1]: 1.79e+07 M⁻¹
- deltaG [2]: -9.92 kcal/mol
- Activity (Mus musculus [3]): 26.1 µL
- Activity (Homo sapiens [4]): Active
- Activity [5]: Non-Toxic
- Activity (Homo sapiens [6]): Active
- MTD at 168 h [7]: 25 mg/kg
- deltaH [8]: -7.86 kcal/mol
- deltaH [9]: -5.86 kcal/mol
- viability at 24 h, 300 ug/ml [10]: > 80%
- Activity [11]: Non-Toxic
- Activity (Homo sapiens [12]): Active
- deltaG [13]: -10.5 kcal/mol
- Activity (Bos taurus [14]): Active
- Activity [15]: Non-Toxic
- Activity (Homo sapiens [16]): Active
- Activity (Homo sapiens [17]): 99%
- MED (Homo sapiens [18]): 4 µg/mL
- Activity (Homo sapiens [19]): 100%
- Activity (Rattus norvegicus [20]): 1.95 min
- MTD [21]: 25 mg/kg
- Activity (Bos taurus [22]): Active
- Activity [23]: Toxic
- viability at 24 h, 300 ug/ml [24]: > 80%
- deltaH [25]: -6.53 kcal/mol
- Activity (Mus musculus [26]): 26 µL
- Activity (Blood [27]): Active
- Ka [28]: 1.87e+07 M⁻¹
- deltaH [29]: -5.07 kcal/mol
- IP [30]: 2.2
- Activity (Rattus norvegicus [31]): Active
- Ka [32]: 4.78e+07 M⁻¹
- Activity (Blood [33]): Toxic
- Activity (Bos taurus [34]): Active
- Time (Rattus norvegicus [35]): 3.63 min
- Time (Mus musculus [36]): 22.7 min
- deltaG [37]: -10.2 kcal/mol
- Activity (Rattus norvegicus [38]): Active
- Activity (Homo sapiens [39]): Active
- Activity (Homo sapiens [40]): 99%
